The values below come from patent publication US9801889B2, “Bicyclic heterocycles as FGFR4 inhibitors” (Incyte Corporation, priority 2015, dated 2017).

For one experiment, the target named is FGFR3 (Homo sapiens (Human), UniProt P22607). In words: FGFR Enzymatic Assay (FRET peptide phosphorylation), FGFR3. Particulars: IC50 ratio showing FGFR4 selectivity.
A further experiment deals with FGFR2 (Homo sapiens (Human), UniProt P21802). In words: FGFR Enzymatic Assay (FRET peptide phosphorylation), FGFR2. The following applies: IC50 ratio showing FGFR4 selectivity.
Sequence of FGFR2 (P21802 22-821): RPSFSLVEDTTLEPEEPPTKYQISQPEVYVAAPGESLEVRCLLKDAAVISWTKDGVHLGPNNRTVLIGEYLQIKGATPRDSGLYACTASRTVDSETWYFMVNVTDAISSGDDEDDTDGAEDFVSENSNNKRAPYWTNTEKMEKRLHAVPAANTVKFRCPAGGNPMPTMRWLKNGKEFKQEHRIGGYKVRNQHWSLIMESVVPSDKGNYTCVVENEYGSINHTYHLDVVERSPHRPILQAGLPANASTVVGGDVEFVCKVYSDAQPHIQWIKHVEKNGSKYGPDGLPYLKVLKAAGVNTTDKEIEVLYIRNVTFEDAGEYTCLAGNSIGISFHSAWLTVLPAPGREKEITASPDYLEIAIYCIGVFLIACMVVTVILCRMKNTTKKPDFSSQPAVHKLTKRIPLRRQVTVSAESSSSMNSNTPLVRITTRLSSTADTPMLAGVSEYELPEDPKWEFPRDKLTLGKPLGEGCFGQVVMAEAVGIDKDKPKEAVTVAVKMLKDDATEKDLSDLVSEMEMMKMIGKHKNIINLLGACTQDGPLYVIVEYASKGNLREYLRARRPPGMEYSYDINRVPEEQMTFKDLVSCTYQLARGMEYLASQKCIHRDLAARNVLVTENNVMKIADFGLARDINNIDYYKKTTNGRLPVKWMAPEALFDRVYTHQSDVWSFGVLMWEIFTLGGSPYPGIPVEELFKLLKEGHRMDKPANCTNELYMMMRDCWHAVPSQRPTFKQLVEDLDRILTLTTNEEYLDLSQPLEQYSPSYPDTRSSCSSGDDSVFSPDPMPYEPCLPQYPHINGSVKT
A further experiment has as its target FGFR4 (Homo sapiens (Human), UniProt P22455). Nature of the experiment: FGFR Enzymatic Assay (FRET peptide phosphorylation), FGFR4.
A further experiment deals with FGFR1 (Homo sapiens (Human), UniProt P11362). Nature of the experiment: FGFR Enzymatic Assay (FRET peptide phosphorylation), FGFR1. Particulars: IC50 ratio showing FGFR4 selectivity.
Sequence of FGFR1 (P11362 22-822): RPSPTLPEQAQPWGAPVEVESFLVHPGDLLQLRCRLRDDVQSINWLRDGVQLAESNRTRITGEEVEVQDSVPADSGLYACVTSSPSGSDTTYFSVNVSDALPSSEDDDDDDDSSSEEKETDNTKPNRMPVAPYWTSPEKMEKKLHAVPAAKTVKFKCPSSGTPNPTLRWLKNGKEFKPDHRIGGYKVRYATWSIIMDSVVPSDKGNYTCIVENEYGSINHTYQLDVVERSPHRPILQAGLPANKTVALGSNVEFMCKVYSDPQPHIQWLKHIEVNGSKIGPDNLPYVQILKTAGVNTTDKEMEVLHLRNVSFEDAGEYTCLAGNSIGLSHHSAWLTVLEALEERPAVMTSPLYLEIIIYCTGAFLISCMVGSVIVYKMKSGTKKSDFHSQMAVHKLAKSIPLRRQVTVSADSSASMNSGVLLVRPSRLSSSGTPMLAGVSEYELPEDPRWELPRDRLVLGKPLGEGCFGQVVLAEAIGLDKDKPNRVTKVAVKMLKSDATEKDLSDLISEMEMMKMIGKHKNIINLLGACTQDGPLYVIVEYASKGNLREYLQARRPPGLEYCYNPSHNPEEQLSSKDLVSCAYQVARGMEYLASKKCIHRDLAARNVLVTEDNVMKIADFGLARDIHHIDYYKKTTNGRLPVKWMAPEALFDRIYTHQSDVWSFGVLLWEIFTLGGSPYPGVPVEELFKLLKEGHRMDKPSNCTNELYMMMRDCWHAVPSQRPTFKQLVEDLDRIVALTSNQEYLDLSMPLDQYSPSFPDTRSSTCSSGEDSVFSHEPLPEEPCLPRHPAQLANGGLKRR
The mark [1] stands for this setting: pre-incubated for 5 to 10 minutes.

Molecules are shown by their SMILES.

Sequence of FGFR3 (P22607 23-806): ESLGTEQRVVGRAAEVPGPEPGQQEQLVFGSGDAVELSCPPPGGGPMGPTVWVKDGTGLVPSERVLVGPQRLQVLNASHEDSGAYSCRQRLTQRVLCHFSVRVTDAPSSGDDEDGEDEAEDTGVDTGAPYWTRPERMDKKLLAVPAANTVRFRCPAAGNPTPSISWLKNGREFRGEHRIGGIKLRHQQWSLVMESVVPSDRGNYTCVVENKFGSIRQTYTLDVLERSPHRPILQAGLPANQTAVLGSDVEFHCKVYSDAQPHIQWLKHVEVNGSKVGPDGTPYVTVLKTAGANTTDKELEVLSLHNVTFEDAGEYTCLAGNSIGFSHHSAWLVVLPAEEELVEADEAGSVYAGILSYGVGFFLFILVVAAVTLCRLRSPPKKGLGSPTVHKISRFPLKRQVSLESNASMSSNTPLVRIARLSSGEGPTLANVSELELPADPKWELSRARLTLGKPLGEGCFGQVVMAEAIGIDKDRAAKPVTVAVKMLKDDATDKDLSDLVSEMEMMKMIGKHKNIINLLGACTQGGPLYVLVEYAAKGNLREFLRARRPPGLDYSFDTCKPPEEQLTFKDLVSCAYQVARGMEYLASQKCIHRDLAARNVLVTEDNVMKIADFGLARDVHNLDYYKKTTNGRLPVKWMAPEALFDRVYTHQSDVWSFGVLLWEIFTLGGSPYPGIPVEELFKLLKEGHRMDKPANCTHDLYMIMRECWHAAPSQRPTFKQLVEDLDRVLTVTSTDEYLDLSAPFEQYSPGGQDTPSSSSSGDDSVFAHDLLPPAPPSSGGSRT
Sequence of FGFR4 (P22455 22-802): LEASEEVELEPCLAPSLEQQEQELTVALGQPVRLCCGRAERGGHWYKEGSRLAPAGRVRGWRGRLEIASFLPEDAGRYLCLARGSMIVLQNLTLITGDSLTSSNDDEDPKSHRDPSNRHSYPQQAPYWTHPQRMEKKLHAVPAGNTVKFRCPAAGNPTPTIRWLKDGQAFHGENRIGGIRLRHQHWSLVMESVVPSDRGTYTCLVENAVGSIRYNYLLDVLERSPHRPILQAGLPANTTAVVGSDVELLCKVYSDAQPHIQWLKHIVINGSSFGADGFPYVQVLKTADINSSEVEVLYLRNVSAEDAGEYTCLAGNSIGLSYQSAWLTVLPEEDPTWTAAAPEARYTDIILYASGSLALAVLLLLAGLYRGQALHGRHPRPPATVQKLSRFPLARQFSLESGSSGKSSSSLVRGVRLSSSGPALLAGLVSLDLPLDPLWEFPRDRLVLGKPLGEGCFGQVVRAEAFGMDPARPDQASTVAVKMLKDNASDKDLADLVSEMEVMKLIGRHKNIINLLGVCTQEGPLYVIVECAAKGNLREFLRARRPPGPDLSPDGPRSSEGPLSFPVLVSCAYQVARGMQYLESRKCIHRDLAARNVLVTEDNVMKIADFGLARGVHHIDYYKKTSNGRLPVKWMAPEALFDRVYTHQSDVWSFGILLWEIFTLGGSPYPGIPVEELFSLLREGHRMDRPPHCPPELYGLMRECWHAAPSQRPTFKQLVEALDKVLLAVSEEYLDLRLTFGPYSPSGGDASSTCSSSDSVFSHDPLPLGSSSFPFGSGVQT
Source text for FGFR1: (§1) The enzymes were purchased from Millipore or Invitrogen.
(§2) GraphPad prism3 was used to analyze the data. The IC50 values were derived by fitting the data to the equation for a sigmoidal dose-response with a variable slope. Y=Bottom+(Top-Bottom)/(1+10^((LogIC50-X)*HillSlope)) where X is the logarithm of concentration and Y is the response.
Source text for FGFR2: as §1, §2
Source text for FGFR3: as §1, §2
Source text for FGFR4: as §1, §2

As a reminder, the IC50 is the concentration that gives 50% inhibition. With `C=CC(=O)Nc1cnn(CC(=O)NC)c1-c1cc2c(cn1)CN(c1c(F)c(OC)cc(OC)c1F)C(=O)C21CC1` [Example 20, N-(5-(2′-(2,6-difluoro-3,5-dimethoxyphenyl)-3′-oxo-2′,3′-dihydro-1′H-spiro[cyclopropane-1,4′-[2,7]naphthyridine]-6′-yl)-1-(2-(methylamino)-2-oxoethyl)-1H-pyrazol-4-yl)acrylamide], the FGFR3/FGFR4 on FGFR3 (pre-incubated for 4 hours) is on record as over 100. Besides, on FGFR2 (pre-incubated for 4 hours), the FGFR2/FGFR4 is reported as over 100. The IC50 against FGFR4 was 10 to 30 nM. For the same compound, the FGFR1/FGFR4 on FGFR1 (pre-incubated for 4 hours) is listed as over 50.

Take `C=CC(=O)Nc1cn(CC(=O)N(C)C)nc1-c1cc2c(cn1)CN(c1c(F)c(OC)cc(OC)c1F)C(=O)C21CC1` [Example 36, N-(3-(2′-(2,6-difluoro-3,5-dimethoxyphenyl)-3′-oxo-2′,3′-dihydro-1′H-spiro[cyclopropane-1,4′-[2,7]naphthyridine]-6′-yl)-1-(2-(dimethylamino)-2-oxoethyl)-1H-pyrazol-4-yl)acrylamide]: the FGFR3/FGFR4 on FGFR3 (pre-incubated for 4 hours) was over 100. On FGFR2 (pre-incubated for 4 hours), the FGFR2/FGFR4 was over 100. Moreover, the FGFR1/FGFR4 at FGFR1 (pre-incubated for 4 hours) is over 100.

Turning to `C=CC(=O)Nc1cn(CC2CCOCC2)nc1-c1cc2c(cn1)CN(c1c(F)c(OC)cc(OC)c1F)C(=O)C21CC1` [Example 35, N-(3-(2′-(2,6-difluoro-3,5-dimethoxyphenyl)-3′-oxo-2′,3′-dihydro-1′H-spiro[cyclopropane-1,4′-[2,7]naphthyridine]-6′-yl)-1-((tetrahydro-2H-pyran-4-yl)methyl)-1H-pyrazol-4-yl)acrylamide], the FGFR3/FGFR4 at FGFR3 (pre-incubated for 4 hours) is over 100. Besides, at FGFR2 (pre-incubated for 4 hours), the FGFR2/FGFR4 is listed as over 100. Moreover, the FGFR1/FGFR4 at FGFR1 (pre-incubated for 4 hours) is over 100.

As to `C=CC(=O)Nc1cnn(C2CCOCC2)c1-c1cc2c(cn1)CN(c1c(F)c(OC)cc(OC)c1F)C(=O)C21CC1` [Example 18, N-(5-(2′-(2,6-difluoro-3,5-dimethoxyphenyl)-3′-oxo-2′,3′-dihydro-1′H-spiro[cyclopropane-1,4′-[2,7]naphthyridine]-6′-yl)-1-(tetrahydro-2H-pyran-4-yl)-1H-pyrazol-4-yl)acrylamide], on FGFR3 (pre-incubated for 4 hours), the FGFR3/FGFR4 is reported as over 100. The FGFR2/FGFR4 at FGFR2 (pre-incubated for 4 hours) is on record as over 50. Besides, on FGFR1 (pre-incubated for 4 hours), the FGFR1/FGFR4 is recorded as over 100.

As for `C=CC(=O)Nc1ccc(C#N)c(-c2cc3c(cn2)CN(c2c(F)c(OC)cc(OC)c2F)C(=O)C32CC2)c1` [Example 5, N-(4-cyano-3-(2′-(2,6-difluoro-3,5-dimethoxyphenyl)-3′-oxo-2′,3′-dihydro-1′H-spiro[cyclopropane-1,4′-[2,7]naphthyridine]-6′-yl)phenyl)acrylamide], the FGFR3/FGFR4 at FGFR3 (setting [1]) and at FGFR3 (pre-incubated for 4 hours) was over 100 each time. Besides, the FGFR2/FGFR4 at FGFR2 (setting [1]) and at FGFR2 (pre-incubated for 4 hours) was over 100 each time. Further, the FGFR1/FGFR4 at FGFR1 (setting [1]) and on FGFR1 (pre-incubated for 4 hours) was over 100 each time.

For the compound `C=CC(=O)Nc1cnn(CCN2CCOCC2)c1-c1cc2c(cn1)CN(c1c(F)c(OC)cc(OC)c1F)C(=O)C21CC1` [Example 19, N-(5-(2′-(2,6-difluoro-3,5-dimethoxyphenyl)-3′-oxo-2′,3′-dihydro-1′H-spiro[cyclopropane-1,4′-[2,7]naphthyridine]-6′-yl)-1-(2-morpholinoethyl)-1H-pyrazol-4-yl)acrylamide], the FGFR3/FGFR4 at FGFR3 (pre-incubated for 4 hours) is on record as over 100. Further, the FGFR2/FGFR4 at FGFR2 (pre-incubated for 4 hours) is recorded as over 100. On FGFR1 (pre-incubated for 4 hours), the FGFR1/FGFR4 is over 100.
